Measurements as given in patent US20160320414A1, “Assay for Detection of Transient Intracellular CA2+” (Rajiv Gandhi Centre for Biotechnology, priority 2007, published 2016).

What was measured:
Type in all cases: cell-based
[1] = molecular target: T1, AMPA-type glutamate receptor GluR4 (Rattus norvegicus, UniProt P19493); assay: GluR4 receptor activity assay (GFP-CaMKII translocation to MLS-NR2B)
T1 construct: expressed in transfected cells; host or cells: HEK-293
Procedure: HEK-293 cells were cotransfected with GluR4 (pRK5-GluR4, about 0.33 μg/well), MLS-NR2B (pSGH-MLS-NR2B, about 0.33 μg/well) and GFP-CaMKII (pEGFP-CaMKII, about 0.1 μg/well) using lipofectamine reagent. During growth, the medium was supplemented with 50 μM CNQX (inhibitor of AMPA receptor). After 48 hours, the transfected cells were subjected to GluR4 activity assay. The growth medium was removed and the cells were washed twice with Ca^2+ and Mg free HBSS containing 2 mM HEPES and 400 μM EGTA. The GluR4 receptor was activated with HBSS solution containing 10 μM glutamate with or without 2 mM Ca^2+ for about 5 minutes. The inhibitor, CNQX (50 μM), when used, was preincubated for 3 minutes with cells in Ca^2+ and Mg^2+-free HBSS followed by activation using the components as described above with 50 μM CNQX. Cells were then fixed and were mounted onto glass slides.

[2] = molecular target: T2, NMDA receptor formed of NR1 and NR2B subunits (Rattus norvegicus, UniProt P35439+Q00960); assay: NMDA receptor activity assay (GFP-α-CaMKII translocation signal); conditions: HEK-293 cells transfected with NR1, NR2B and GFP-α-CaMKII; for Ca2+ influx / translocation of GFP-α-CaMKII to NR2B upon receptor activation: glutamate 10 μM and glycine 2 μM with 2 mM CaCl2, about 5 minutes, no signal without extracellular Ca2+
T2 construct: expressed in transfected cells; host or cells: HEK-293
T2 sequence (Q00960 27-1482, other chains not shown): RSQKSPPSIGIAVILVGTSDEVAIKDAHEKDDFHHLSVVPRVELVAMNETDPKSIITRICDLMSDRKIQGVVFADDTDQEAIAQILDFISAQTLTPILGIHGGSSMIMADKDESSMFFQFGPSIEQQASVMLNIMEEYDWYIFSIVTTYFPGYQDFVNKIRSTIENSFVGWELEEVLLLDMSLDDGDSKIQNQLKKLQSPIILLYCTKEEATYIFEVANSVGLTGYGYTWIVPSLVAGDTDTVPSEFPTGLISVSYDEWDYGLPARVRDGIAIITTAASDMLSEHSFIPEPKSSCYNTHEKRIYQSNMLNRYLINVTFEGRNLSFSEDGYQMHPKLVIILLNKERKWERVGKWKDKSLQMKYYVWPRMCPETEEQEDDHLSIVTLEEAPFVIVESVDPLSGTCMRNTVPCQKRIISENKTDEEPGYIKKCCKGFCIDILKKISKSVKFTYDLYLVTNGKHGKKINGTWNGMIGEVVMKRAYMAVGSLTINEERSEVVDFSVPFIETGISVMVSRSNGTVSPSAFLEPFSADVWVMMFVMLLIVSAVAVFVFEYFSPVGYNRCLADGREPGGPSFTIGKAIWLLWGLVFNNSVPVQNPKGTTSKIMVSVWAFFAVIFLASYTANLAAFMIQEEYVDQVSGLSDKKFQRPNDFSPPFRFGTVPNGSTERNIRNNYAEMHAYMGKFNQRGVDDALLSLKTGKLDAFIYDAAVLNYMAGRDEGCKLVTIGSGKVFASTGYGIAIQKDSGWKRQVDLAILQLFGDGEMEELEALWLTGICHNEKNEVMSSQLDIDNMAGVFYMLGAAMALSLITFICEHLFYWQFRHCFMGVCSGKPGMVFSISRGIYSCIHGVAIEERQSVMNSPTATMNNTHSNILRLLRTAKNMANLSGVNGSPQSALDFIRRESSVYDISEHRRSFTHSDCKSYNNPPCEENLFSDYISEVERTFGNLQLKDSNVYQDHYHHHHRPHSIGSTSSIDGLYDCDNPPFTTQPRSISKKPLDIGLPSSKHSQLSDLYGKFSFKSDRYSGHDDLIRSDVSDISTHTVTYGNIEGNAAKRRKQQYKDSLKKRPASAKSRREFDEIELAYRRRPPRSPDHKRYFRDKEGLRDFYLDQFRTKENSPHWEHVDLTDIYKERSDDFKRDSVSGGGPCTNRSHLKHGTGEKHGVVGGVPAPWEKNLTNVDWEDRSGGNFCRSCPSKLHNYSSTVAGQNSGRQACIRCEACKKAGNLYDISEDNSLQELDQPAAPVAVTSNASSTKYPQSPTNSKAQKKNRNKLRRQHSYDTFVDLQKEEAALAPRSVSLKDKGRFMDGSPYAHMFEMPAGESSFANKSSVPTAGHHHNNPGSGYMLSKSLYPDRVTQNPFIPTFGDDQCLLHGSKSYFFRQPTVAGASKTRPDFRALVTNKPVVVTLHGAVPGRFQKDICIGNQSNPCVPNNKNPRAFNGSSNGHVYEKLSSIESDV

[3] = molecular target: T3, vanilloid receptor (TRPV1) (Rattus norvegicus, UniProt O35433); assay: TRPV1 receptor activity assay (GFP-CaMKII translocation to MLS-NR2B)
T3 construct: expressed in transfected cells; host or cells: HEK-293
T3 sequence (O35433 whole entry): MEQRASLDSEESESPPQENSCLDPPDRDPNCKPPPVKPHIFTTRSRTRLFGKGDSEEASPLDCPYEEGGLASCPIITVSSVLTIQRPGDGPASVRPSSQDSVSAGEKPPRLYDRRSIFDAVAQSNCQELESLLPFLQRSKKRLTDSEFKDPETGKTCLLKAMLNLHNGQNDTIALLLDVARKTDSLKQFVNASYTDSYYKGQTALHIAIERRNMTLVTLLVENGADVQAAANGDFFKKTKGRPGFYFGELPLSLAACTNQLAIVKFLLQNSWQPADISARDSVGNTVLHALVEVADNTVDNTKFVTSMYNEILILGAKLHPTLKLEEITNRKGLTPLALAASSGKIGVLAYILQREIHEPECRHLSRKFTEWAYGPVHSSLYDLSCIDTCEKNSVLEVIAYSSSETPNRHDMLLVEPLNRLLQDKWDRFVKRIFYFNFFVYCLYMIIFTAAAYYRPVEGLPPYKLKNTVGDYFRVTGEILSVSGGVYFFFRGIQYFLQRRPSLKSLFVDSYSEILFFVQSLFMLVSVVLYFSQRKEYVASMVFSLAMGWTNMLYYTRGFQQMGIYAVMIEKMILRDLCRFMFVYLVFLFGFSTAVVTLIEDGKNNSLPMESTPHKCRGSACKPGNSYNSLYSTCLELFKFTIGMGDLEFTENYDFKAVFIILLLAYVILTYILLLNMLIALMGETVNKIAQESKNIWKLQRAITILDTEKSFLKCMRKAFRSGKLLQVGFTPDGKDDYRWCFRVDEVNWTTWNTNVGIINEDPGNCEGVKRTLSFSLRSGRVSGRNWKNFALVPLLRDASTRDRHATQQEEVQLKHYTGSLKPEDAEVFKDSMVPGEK

[4] = tested on: MLS-NR2B; assay: Ionomycin-mediated Ca2+-influx, cell count of cells with GFP-clustering signal; conditions: HEK-293 cells with MLS-NR2B
Procedure: For transfection, 1.5×10^4 HEK-293 cells were seeded on sterile 12 mm cover slips in 24 well plates (Nunc). After 24 hrs, the cells were cotransfected with plasmid constructs encoding GFP-α-CaMKII (0.1 μg/well) and either of MLS-NR2A or MLS-NR2B (0.25 μg/well), or pRK-NR2A or pRK-NR2B (along with pRc-NR1 for expression of functional NMDA receptor) using Lipofectamine reagent. About 48 hrs following transfection, cells were washed with Hank's balanced salt solution (HBSS) containing 20 mM HEPES and 1.4 mM EGTA. The cells were then incubated with 15 μM ionomycin in the same buffer for 10 min. Subsequently the cells were incubated in the same buffer containing 2 mM CaCl2 and 3 μM ionomycin. Cells were fixed with 3.7% paraformaldehyde in PBS (Phosphate-buffered saline, 10 mM disodium hydrogen phosphate, 1.8 mM potassium dihydrogen orthophosphate, 140 mM sodium chloride, 2.7 mM potassium chloride, pH adjusted to 7.4) at different time points after addition of calcium, mounted with mountant containing DABCO (antifade) and were observed through either a simple fluorescence microscope or a confocal fluorescence microscope (TCS -SP2-AOBS from Leica).
Appearance of perinuclear granules due to mitochondrial localization of GFP-α-CaMKII is taken as the signal for binding between GFP-α-CaMKII and MLS-NR2B. […]

T1 sequence (P19493 22-902 limits assumed): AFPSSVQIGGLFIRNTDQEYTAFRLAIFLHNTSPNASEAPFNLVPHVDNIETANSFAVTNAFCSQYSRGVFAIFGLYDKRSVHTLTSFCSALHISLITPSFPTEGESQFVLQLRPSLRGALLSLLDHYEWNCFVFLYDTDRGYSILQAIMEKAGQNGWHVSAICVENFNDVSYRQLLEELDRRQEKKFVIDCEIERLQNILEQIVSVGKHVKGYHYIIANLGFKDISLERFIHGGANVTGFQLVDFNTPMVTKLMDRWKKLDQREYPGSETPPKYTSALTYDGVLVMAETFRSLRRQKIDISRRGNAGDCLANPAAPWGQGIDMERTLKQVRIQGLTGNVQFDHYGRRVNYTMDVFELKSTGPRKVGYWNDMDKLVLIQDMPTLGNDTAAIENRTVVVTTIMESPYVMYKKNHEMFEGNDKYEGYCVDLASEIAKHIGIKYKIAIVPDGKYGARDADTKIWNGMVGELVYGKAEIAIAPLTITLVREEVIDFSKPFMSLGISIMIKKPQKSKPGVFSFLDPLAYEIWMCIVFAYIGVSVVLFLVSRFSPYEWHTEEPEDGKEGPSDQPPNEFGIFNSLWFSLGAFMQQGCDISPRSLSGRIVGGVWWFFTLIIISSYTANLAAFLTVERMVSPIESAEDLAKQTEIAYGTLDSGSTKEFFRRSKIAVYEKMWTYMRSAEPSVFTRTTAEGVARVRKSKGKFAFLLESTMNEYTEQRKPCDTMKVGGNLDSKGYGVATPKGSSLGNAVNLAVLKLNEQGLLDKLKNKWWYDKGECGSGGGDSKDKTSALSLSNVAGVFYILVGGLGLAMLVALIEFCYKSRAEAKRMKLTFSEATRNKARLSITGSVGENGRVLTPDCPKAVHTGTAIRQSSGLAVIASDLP

## N#Cc1cc2[nH]c(=O)c(=O)[nH]c2cc1[N+](=O)[O-] [CNQX]
[1]; CNQX 50 μM, preincubated 3 minutes, then glutamate activation (FIG. 11)
  Generation of the signal in presence of specific inhibitor: could be blocked

## C[C@]12N[C@H](Cc3ccccc31)c1ccccc12 [MK-801]
[2]; activated with glutamate and glycine, 1 mM AP-5 or 10 μM MK-801
  Signal generation in presence of NMDA receptor specific inhibitor: blocked

## COc1cc(CNC(=O)CCCC/C=C/C(C)C)ccc1O [capsaicin]
[3]; HEK-293 cells cotransfected with TRPV1, GFP-CaMKII and MLS-NR2B, capsaicin 3 μM or 10 nM with 2 mM Ca2+, 5 minutes
  Green punctae as signal for Ca2+-channel activity of TRPV1 upon activation: developed green punctae

## Oc1cc2c(cc1O)CN(C(=S)NCCc1ccc(Cl)cc1)CCC2 [capsazepine]
[3]; capsazepine 50 μM, preincubated 3 minutes, then capsaicin activation with Ca2+ (FIG. 10)
  Signal generation due to activation of TRPV1 in presence of inhibitor: could be inhibited

## N[C@@H](CCC(=O)O)C(=O)O [glutamate]
[1]; HEK-293 cells transfected with GluR4, GFP-CaMKII and MLS-NR2B, 10 μM glutamate with 2 mM Ca2+, about 5 minutes
  Green punctae (translocation of GFP-CaMKII to MLS-NR2B) upon receptor activation: caused the formation of green punctae
[2]
  Ca2+ influx / translocation of GFP-α-CaMKII to NR2B upon receptor activation: caused influx of Ca^2+

## NCC(=O)O [glycine]
[2]
  Ca2+ influx / translocation of GFP-α-CaMKII to NR2B upon receptor activation: caused influx of Ca^2+

## T286D-CaMKII: T286D mutant form of the GFP fusion of α-CaMKII used as Ca2+ sensor
[4]; ionomycin-mediated Ca2+ influx (FIG. 5)
  Cell count (percentage of green cells with binding signal) relative to wild-type GFP-α-CaMKII: increased (more than two fold) cell count
[4]; ionomycin-mediated Ca2+ influx, different extracellular [Ca2+] (FIG. 6)
  Lowest extracellular [Ca2+] giving response: 2 nM
